# Data taken from ChEMBL document CHEMBL1148995, “Antitumor agents from bohemic acid complex, VI. Schaunardimycin” (J Nat Prod, 1984).
# What was measured:
# [1] = system: Mus musculus; assay: Toxicity in mouse L1210 cells implanted CDF1 mouse assessed as average weight gain at 12.8 mg/kg, ip single dose on day 1; assay type: organism-based; parameters: dose 12.8 mg/kg, route intraperitoneal; settings: in vivo
# [2] = system: Mus musculus; assay: Toxicity in mouse L1210 cells implanted CDF1 mouse assessed as average weight gain at 6.4 mg/kg, ip single dose on day 1; assay type: organism-based; parameters: dose 6.4 mg/kg, route intraperitoneal; settings: in vivo
# [3] = system: Mus musculus; assay: Toxicity in mouse L1210 cells implanted CDF1 mouse assessed as average weight gain at 3.2 mg/kg, ip single dose on day 1; assay type: organism-based; parameters: dose 3.2 mg/kg, route intraperitoneal; settings: in vivo
# [4] = system: Mus musculus; assay: Toxicity in mouse L1210 cells implanted CDF1 mouse assessed as average weight gain at 1.6 mg/kg, ip single dose on day 1; assay type: organism-based; parameters: dose 1.6 mg/kg, route intraperitoneal; settings: in vivo
# [5] = system: Mus musculus; assay: Toxicity in mouse L1210 cells implanted CDF1 mouse assessed as average weight gain at 0.8 mg/kg, ip single dose on day 1; assay type: organism-based; parameters: dose 0.8 mg/kg, route intraperitoneal; settings: in vivo
# [6] = system: Mus musculus; assay: Toxicity in mouse L1210 cells implanted CDF1 mouse assessed as average weight gain at 0.4 mg/kg, ip single dose on day 1; assay type: organism-based; parameters: dose 0.4 mg/kg, route intraperitoneal; settings: in vivo
# [7] = system: Mus musculus; assay: Toxicity in mouse L1210 cells implanted CDF1 mouse assessed as average weight gain at 0.2 mg/kg, ip single dose on day 1; assay type: organism-based; parameters: dose 0.2 mg/kg, route intraperitoneal; settings: in vivo
# [8] = system: Mus musculus; assay: Toxicity in mouse L1210 cells implanted CDF1 mouse assessed as average weight gain at 6.4 mg/kg, ip qd for 1 to 5 days; assay type: organism-based; parameters: dose 6.4 mg/kg, route intraperitoneal; settings: in vivo
# [9] = system: Mus musculus; assay: Toxicity in mouse L1210 cells implanted CDF1 mouse assessed as average weight gain at 3.2 mg/kg, ip qd for 1 to 5 days; assay type: organism-based; parameters: dose 3.2 mg/kg, route intraperitoneal; settings: in vivo
# [10] = system: Mus musculus; assay: Toxicity in mouse L1210 cells implanted CDF1 mouse assessed as average weight gain at 1.6 mg/kg, ip qd for 1 to 5 days; assay type: organism-based; parameters: dose 1.6 mg/kg, route intraperitoneal; settings: in vivo
# [11] = system: Mus musculus; assay: Toxicity in mouse L1210 cells implanted CDF1 mouse assessed as average weight gain at 0.8 mg/kg, ip qd for 1 to 5 days; assay type: organism-based; parameters: dose 0.8 mg/kg, route intraperitoneal; settings: in vivo
# [12] = system: Mus musculus; assay: Toxicity in mouse L1210 cells implanted CDF1 mouse assessed as average weight gain at 0.4 mg/kg, ip qd for 1 to 5 days; assay type: organism-based; parameters: dose 0.4 mg/kg, route intraperitoneal; settings: in vivo
# [13] = system: Mus musculus; assay: Toxicity in mouse L1210 cells implanted CDF1 mouse assessed as average weight gain at 0.2 mg/kg, ip qd for 1 to 5 days; assay type: organism-based; parameters: dose 0.2 mg/kg, route intraperitoneal; settings: in vivo
# [14] = system: Mus musculus; assay: Toxicity in mouse L1210 cells implanted CDF1 mouse assessed as survivors on day 5 at 25.6 mg/kg, ip single dose on day 1; assay type: organism-based; parameters: dose 25.6 mg/kg, route intraperitoneal; settings: in vivo
# [15] = system: Mus musculus; assay: Toxicity in mouse L1210 cells implanted CDF1 mouse assessed as survivors on day 5 at 12.8 mg/kg, ip single dose on day 1; assay type: organism-based; parameters: dose 12.8 mg/kg, route intraperitoneal; settings: in vivo
# [16] = system: Mus musculus; assay: Toxicity in mouse L1210 cells implanted CDF1 mouse assessed as survivors on day 5 at 6.4 mg/kg, ip single dose on day 1; assay type: organism-based; parameters: dose 6.4 mg/kg, route intraperitoneal; settings: in vivo
# [17] = system: Mus musculus; assay: Toxicity in mouse L1210 cells implanted CDF1 mouse assessed as survivors on day 5 at 3.2 mg/kg, ip single dose on day 1; assay type: organism-based; parameters: dose 3.2 mg/kg, route intraperitoneal; settings: in vivo
# [18] = system: Mus musculus; assay: Toxicity in mouse L1210 cells implanted CDF1 mouse assessed as survivors on day 5 at 1.6 mg/kg, ip single dose on day 1; assay type: organism-based; parameters: dose 1.6 mg/kg, route intraperitoneal; settings: in vivo
# [19] = system: Mus musculus; assay: Toxicity in mouse L1210 cells implanted CDF1 mouse assessed as survivors on day 5 at 0.8 mg/kg, ip single dose on day 1; assay type: organism-based; parameters: dose 0.8 mg/kg, route intraperitoneal; settings: in vivo
# [20] = system: Mus musculus; assay: Toxicity in mouse L1210 cells implanted CDF1 mouse assessed as survivors on day 5 at 0.4 mg/kg, ip single dose on day 1; assay type: organism-based; parameters: dose 0.4 mg/kg, route intraperitoneal; settings: in vivo
# [21] = system: Mus musculus; assay: Toxicity in mouse L1210 cells implanted CDF1 mouse assessed as survivors on day 5 at 0.2 mg/kg, ip single dose on day 1; assay type: organism-based; parameters: dose 0.2 mg/kg, route intraperitoneal; settings: in vivo
# [22] = system: Mus musculus; assay: Toxicity in mouse L1210 cells implanted CDF1 mouse assessed as survivors on day 5 at 6.4 mg/kg, ip qd for 1 to 5 days; assay type: organism-based; parameters: dose 6.4 mg/kg, route intraperitoneal; settings: in vivo
# [23] = system: Mus musculus; assay: Toxicity in mouse L1210 cells implanted CDF1 mouse assessed as survivors on day 5 at 3.2 mg/kg, ip qd for 1 to 5 days; assay type: organism-based; parameters: dose 3.2 mg/kg, route intraperitoneal; settings: in vivo
# [24] = system: Mus musculus; assay: Toxicity in mouse L1210 cells implanted CDF1 mouse assessed as survivors on day 5 at 1.6 mg/kg, ip qd for 1 to 5 days; assay type: organism-based; parameters: dose 1.6 mg/kg, route intraperitoneal; settings: in vivo
# [25] = system: Mus musculus; assay: Toxicity in mouse L1210 cells implanted CDF1 mouse assessed as survivors on day 5 at 0.8 mg/kg, ip qd for 1 to 5 days; assay type: organism-based; parameters: dose 0.8 mg/kg, route intraperitoneal; settings: in vivo
# [26] = system: Mus musculus; assay: Toxicity in mouse L1210 cells implanted CDF1 mouse assessed as survivors on day 5 at 0.4 mg/kg, ip qd for 1 to 5 days; assay type: organism-based; parameters: dose 0.4 mg/kg, route intraperitoneal; settings: in vivo
# [27] = system: Mus musculus; assay: Toxicity in mouse L1210 cells implanted CDF1 mouse assessed as survivors on day 5 at 0.2 mg/kg, ip qd for 1 to 5 days; assay type: organism-based; parameters: dose 0.2 mg/kg, route intraperitoneal; settings: in vivo
# [28] = system: L1210; assay: Antitumor activity against mouse L1210 cells implanted in CDF1 mouse at 0.2 mg/kg, ip qd for 1 to 5 days relative to control; assay type: functional; settings: route intraperitoneal
smiles,measurement,setting,value
CC[C@@]1(O)C[C@H](O[C@H]2C[C@H](NC)[C@H](O[C@H]3C[C@H](O)[C@H](O)[C@H](C)O3)[C@H](C)O2)c2c(cc3c(c2O)C(=O)c2c(O)ccc(O)c2C3=O)[C@H]1C(=O)OC [SCHAUNARDIMYCIN],Activity,[1],0.7 g
same,Activity,[2],2.5 g
same,Activity,[3],3.2 g
same,weight gain,[4],2.7 g
same,weight gain,[5],2.8 g
same,weight gain,[6],2.8 g
same,weight gain,[7],2.5 g
same,Activity,[8],1.6 g
same,Activity,[9],2.8 g
same,weight gain,[10],3 g
same,weight gain,[11],3.5 g
same,weight gain,[12],2.6 g
same,weight gain,[13],2.6 g
same,Activity,[14],Active
same,Activity,[15],Active
same,Activity,[16],Active
same,Activity,[17],Active
same,Activity,[18],Active
same,Activity,[19],Active
same,Activity,[20],Active
same,Activity,[21],Active
same,Activity,[22],Active
same,Activity,[23],Active
same,Activity,[24],Active
same,Activity,[25],Active
same,Activity,[26],Active
same,Activity,[27],Active
same,T/C,[28],117%
